Experimental data: patent publication US12331018B2, “Pyrrolidine orexin receptor agonists” (Merck Sharp & Dohme LLC, priority 2019, dated 2025)
Read-outs that look alike come from different tables or passages of the source.

Target: T1, human OX2R (Homo sapiens, UniProt O43614)
T1 construct: expressed in transfected cells; host or cells: CHO (Chinese hamster ovary) cells, grown under G418 selection
T1 sequence (O43614 1-444): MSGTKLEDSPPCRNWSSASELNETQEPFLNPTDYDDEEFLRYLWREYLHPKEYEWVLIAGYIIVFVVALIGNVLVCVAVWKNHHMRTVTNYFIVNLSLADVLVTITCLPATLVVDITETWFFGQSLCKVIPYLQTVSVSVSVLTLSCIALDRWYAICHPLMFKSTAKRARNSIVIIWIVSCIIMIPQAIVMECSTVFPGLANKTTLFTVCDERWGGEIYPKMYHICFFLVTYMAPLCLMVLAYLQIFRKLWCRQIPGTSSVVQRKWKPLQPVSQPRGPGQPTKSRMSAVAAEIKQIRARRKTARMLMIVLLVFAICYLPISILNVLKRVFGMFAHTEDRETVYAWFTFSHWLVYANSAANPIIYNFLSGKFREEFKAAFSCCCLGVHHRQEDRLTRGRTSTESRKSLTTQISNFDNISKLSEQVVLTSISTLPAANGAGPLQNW
Experiment: IPOne (IP-1 accumulation) assay in CHO cells expressing human OX2R
Assay type: cell-based
Details: for Emax, % of reference agonist: OX2R, percentage of sample raw value/mean max effect (reference compound at 1 uM with 100% activity)
Description: The utility of the compounds in accordance with the present invention as orexin receptor OX1R and/or OX2R agonists may be readily determined without undue experimentation by methodology well known in the art. Both the OX1R and/or OX2R G-coupled protein receptors (GPCRs) couple through the Gaq signaling pathway, which ultimately promotes calcium mobilization via inositol triphosphate (IP3) production. The half-life of IP-3 is relatively short, being rapidly metabolized to inositol monophosphate (IP-1), which can be readily detected using a commercially available assay kit (IP-One; Cisbio; cat #621PAPEC) coupled with a cell line expressing the target receptor(s) of interest. The utility of the compounds in accordance with the present invention as orexin receptor OX1R and/or OX2R agonists may be determined utilizing this assay.
In a typical experiment, the OX1 and OX2 receptor agonist activity is determined in accordance with the following general experimental method. Chinese hamster ovary (CHO) cells expressing human OX1R and/or the human OX2R were grown in Iscove's modified DMEM containing glutaMAX™, 1% G418, 100 U/mL penicillin, 100 μg/mL streptomycin and 10% heat-inactivated qualified fetal bovine serum (FBS). The OX2R cells were seeded at 10,000 cells/well/50 μL and the OX1R cells were seeded at 20,000 cells/well/50 μL into 384-well white tissue culture plates (Greiner; cat #781080). All cell/media reagents were from GIBCO-Invitrogen Corp. The seeded cell plate(s) were incubated at 37° C. with 5% CO2 and 85% humidity for 20-24 hours. On the day of the assay, assay-ready compound plates were prepared using an acoustic liquid handler (ECHO; Labcyte), which dispensed sufficient volume of test compound stock (10 mM in DMSO) or 100% DMSO to prepare 10 point, ½-log dilutions in a final volume of 202.5 nL/well in all test wells of a 384-well diamond plate (Labcyte). Following completion of assay-ready plates, importantly, the next three steps were performed with minimal delay: 1) 20 μl of 1× stimulation buffer was added to the compound plate using a Multidrop Combi (small cassette, Thermo Fisher Scientific cat #24073290); 2) culture medium was removed from the cell plate using the Bluewasher plate washer (gentle spin; BlueCatBio); 3) 14 μl of compound/stimulation buffer mixture was added to the cell plate using a Bravo liquid handler (Agilent) prior to incubating cell plates at 37° C. with 5% CO2 and 85% humidity for 1 or 2 hours (OX1R and OX2R, respectively). During this incubation, IP-one detection reagents were prepared (38:1:1 lysis buffer:D2:AB-cryptate reagents). Six μL of mixed detection reagents were added to the cell plate using a Multidrop Combi (small cassette, Thermo Fisher Scientific cat #24073290) and incubated 60 minutes at room temperature in the dark. Fluorescence signal was detected using an Envision plate reader (Perkin Elmer) [LANCE/DELFIA Dual Enh (Em: APC 665; Ex: Cy5 620)].
For each compound, data were fit to a four parameter logistic fit (ActivityBase software) and the EC50 was reported as the inflection point of the resulting curve. Percent effect for each test compound was determined as the percentage of sample raw value/mean max effect, where the mean max effect was derived from the mean raw value of 32 control wells per assay plate (using Orexin A (cat #003-30) at 1 μM for human OX1R and a reference compound at 1 uM with 100% activity previously established by comparison to Orexin A for human OX2R). The intrinsic orexin receptor agonist activity of a compound which may be used in the present invention may be determined by these assays.

[1] = CHO cells expressing human OX2R, IP-One assay, 2 hours incubation, four parameter logistic fit, read-out: OX2R Potency, EC50

Structure (SMILES) | EC50 [1] [nM] | Emax, % of reference agonist [%] | OX2R Potency, EC50 (nM) (CHO cells expressing human OX2R, IP-One assay, 2 hours incubation, four parameter logistic fit) | EC50 [nM]
CC(C)NC(=O)N1CC[C@@H](NS(C)(=O)=O)[C@H]1CO[C@H]1CC[C@@H](c2ccccc2)CC1 (relative stereo) [Example 9, (CIS)-N-isopropyl-3-(methylsulfonamido)-2-((((CIS)-4-phenylcyclohexyl)oxy)methyl) pyrrolidine-1-carboxamide] | 36.4 | 99.2 | – | –
CS(=O)(=O)N[C@H]1CCN(C(=O)NC2CC2)[C@H]1CO[C@H]1CC[C@@H](c2ccccc2)CC1 (relative stereo) [Example 22, (CIS)-N-cyclopropyl-3-(methylsulfonamido)-2-((((CIS)-4-phenylcyclohexyl)oxy)methyl)pyrrolidine-1-carboxamide] | 250 | 99.6 | – | –
CC(C)C1CCC(OC[C@H]2[C@@H](NS(C)(=O)=O)CCN2C(=O)C2CC2)CC1 (stereo partly drawn) [Example 30, N-((2R,3S)-1-(cyclopropanecarbonyl)-2-(((4-isopropylcyclohexyl)oxy)methyl)pyrrolidin-3-yl)methanesulfonamide] | 433 | 100.6 | – | –
COC(=O)N1CC[C@@H](NS(=O)(=O)C(C)C)[C@H]1CO[C@H]1CC[C@@H](c2ccccc2)CC1 (relative stereo) [Example 14, methyl (CIS)-3-((1-methylethyl)sulfonamido)-2-((((CIS)-4-phenylcyclohexyl)oxy)methyl) pyrrolidine-1-carboxylate] | 372 | 101.3 | – | –
COC(=O)N1CCC(NS(C)(=O)=O)[C@@H]1COC1CCC(C(C)C)CC1 (stereo in doubt) [Example 29, methyl (2R,3R)-2-(((4-isopropylcyclohexyl)oxy)methyl)-3-(methylsulfonamido)pyrrolidine-1-carboxylate] | 358 | 99.0 | – | –
CC(=O)N1CC[C@H](NS(C)(=O)=O)[C@@H]1CO[C@H]1CC[C@@H](c2ccccc2)CC1 (relative stereo) [Example 3, N-((CIS)-1-acetyl-2-((((CIS)-4-phenylcyclohexyl)oxy)methyl)pyrrolidin-3-yl)methanesulfonamide] | 272 | 101.3 | – | –
CS(=O)(=O)N[C@H]1CCN(C(=O)NCC2CCC2)[C@H]1CO[C@H]1CC[C@@H](c2ccccc2)CC1 (relative stereo) [Example 21, (CIS)-N-(cyclobutylmethyl)-3-(methylsulfonamido)-2-((((CIS)-4-phenylcyclohexyl)oxy)-methyl)pyrrolidine-1-carboxamide] | 5.65 | 103.2 | – | –
CCOC(=O)N1CC[C@@H](NS(C)(=O)=O)[C@H]1CO[C@H]1CC[C@@H](c2ccccc2)CC1 (relative stereo) [Example 4, ethyl (CIS)-3-(methylsulfonamido)-2-((((CIS)-4-phenylcyclohexyl)oxy)methyl) pyrrolidine-1-carboxylate] | 252 | 98.9 | – | –
CS(=O)(=O)N[C@H]1CCN(C(=O)OCC(F)(F)F)[C@H]1CO[C@H]1CC[C@@H](c2ccccc2)CC1 (relative stereo) [Example 24, 2,2,2-trifluoroethyl (CIS)-3-(methylsulfonamido)-2-((((CIS)-4-phenylcyclohexyl)oxy)methyl)pyrrolidine-1-carboxylate] | 493 | 100.2 | – | –
COC(=O)N1CC[C@@H](NS(=O)(=O)C2CC2)[C@H]1CO[C@H]1CC[C@@H](c2ccccc2)CC1 (relative stereo) [Example 15, methyl (CIS)-3-(cyclopropanesulfonamido)-2-((((CIS)-4-phenylcyclohexyl)oxy)methyl) pyrrolidine-1-carboxylate] | 299 | 99.8 | – | –
CS(=O)(=O)N[C@H]1CCN(C(=O)C2CC2)C1COC1CCC(c2ccccc2)CC1 (single isomer, unassigned) [Example 26] | – | 17.1 | INACTIVE | –
CS(=O)(=O)N[C@@H]1CCN(C(=O)OCCF)[C@@H]1CO[C@H]1CC[C@@H](c2ccccc2)CC1 (relative stereo) [Example 6, 2-fluoroethyl (CIS)-3-(methylsulfonamido)-2-((((CIS)-4-phenylcyclohexyl)oxy)methyl) pyrrolidine-1-carboxylate] | 216 | 98.4 | – | –
CCNC(=O)N1CC[C@H](NS(C)(=O)=O)[C@@H]1COC1CCC(C(C)C)CC1 (stereo partly drawn) [Example 28, (2R,3S)—N-ethyl-2-(((4-isopropylcyclohexyl)oxy)methyl)-3-(methylsulfonamido)pyrrolidine-1-carboxamide] | – | 99.8 | – | 57.8
CS(=O)(=O)N[C@H]1CCN(C(=O)OCC(F)F)[C@H]1CO[C@H]1CC[C@@H](c2ccccc2)CC1 [Example 12, 2,2-difluoroethyl (2R,3S)-3-(methylsulfonamido)-2-((((CIS)-4-phenylcyclohexyl)oxy)methyl) pyrrolidine-1-carboxylate] | 81 | 101.1 | – | –
CS(=O)(=O)N[C@H]1CCN(C(=O)C2CC2)C1COC1CCC(c2ccccc2)CC1 (single isomer, unassigned) [Example 27] | 48.7 | 100.2 | – | –
CC(C)OC(=O)N1CC[C@@H](NS(C)(=O)=O)[C@H]1CO[C@H]1CC[C@@H](c2ccccc2)CC1 (relative stereo) [Example 5, isopropyl (CIS)-3-(methylsulfonamido)-2-((((CIS)-4-phenylcyclohexyl)oxy)methyl) pyrrolidine-1-carboxylate] | 2630 | 92.8 | – | –
COC(=O)N1CC[C@H](NS(C)(=O)=O)[C@@H]1CO[C@H]1CC[C@@H](c2ccccc2)CC1 [Example 11, methyl (2R,3S)-3-(methylsulfonamido)-2-((((CIS)-4-phenylcyclohexyl)oxy)methyl) pyrrolidine-1-carboxylate] | 115 | 100.2 | – | –
CC(=O)OCC(=O)N1CC[C@H](NS(C)(=O)=O)[C@@H]1CO[C@H]1CC[C@@H](c2ccccc2)CC1 (relative stereo) [Example 7, 2-((CIS)-3-(methylsulfonamido)-2-((((CIS)-4-phenylcyclohexyl)oxy)methyl)pyrrolidin-1-yl)-2-oxoethyl acetate] | 361 | 98.8 | – | –
CCNC(=O)N1CC[C@H](NS(C)(=O)=O)[C@@H]1CO[C@H]1CC[C@@H](c2ccccc2)CC1 (relative stereo) [Example 1, (CIS)-N-ethyl-3-(methylsulfonamido)-2-((((CIS)-4-phenylcyclohexyl)oxy)methyl)pyrrolidine-1-carboxamide] | – | 99.6 | – | 12
COC(=O)N1CC[C@H](NS(=O)(=O)c2ccccc2)[C@@H]1CO[C@H]1CC[C@@H](c2ccccc2)CC1 (relative stereo) [Example 17, methyl (CIS)-2-((((CIS)-4-phenylcyclohexyl)oxy)methyl)-3-(phenylsulfonamido)pyrrolidine-1-carboxylate] | 3700 | 82.3 | – | –
